Data from US20250122202A1, “EGFR INHIBITOR, PREPARATION METHOD THEREFOR AND USE THEREOF” (SHANDONG NEW TIME PHARMACEUTICAL CO., LTD., priority 2021, published 2025).
pIC50: −log10 of the molar value. Like-named read-outs stand apart in the source and are kept apart here.

Columns and labels:
[1] = biological target: EGFR (D770-N771 ins NPG T790M) kinase (Homo sapiens (Human), UniProt P00533, INS770NPG/T790M); test: In-vitro enzyme experiment 1 (HTRF kinase assay), EGFR D770-N771 ins NPG T790M; type: biochemical
Description: The specific experiment was as follows: • 1. Preparation of 1× concentration kinase buffer • 1 volume of 5 times concentration of an enzyme buffer diluted with 4 volumes of distilled water; 5 mM magnesium chloride; 1 mM DTT; and 1 mM MnCl2. • 2. Test method of activity of compound • a) a compound diluent was transferred to each well of an assay plate (784075, Greiner) using Echo 550; • b) the assay plate was sealed and centrifuged at 1,000 g for 1 min; • c) 2×EGFR (D770-N771 ins NPG T790M) was prepared in a 1× kinase buffer; • d) 5 μl of the 2×EGFR (D770-N771 ins NPG T790M) was added to a 384-well assay plate (784075, Greiner); • e) the assay plate was centrifuged at 1,000 g for 30 s and incubated at room temperature for 10 min; • f) 2× TK-substrate-biotin (2 μM) and ATP were added to the 1× kinase buffer and mixed; • g) the reaction was started after adding 5 μl of the TK-substrate-biotin (2 μM) and ATP mixture; • h) the assay plate was centrifuged at 1,000 g for 30 s; and the assay plate was sealed and incubated at room temperature for 40 min; • i) 4× Sa-XL 665 was prepared in an HTRF detection buffer; • j) 5 μl of the Sa-XL 665 and 5 μl of a TK-antibody-cryptate were added to each well of the assay plate; • k) the assay plate was centrifuged at 1,000 g for 30 s and incubated at room temperature for 1 h; and • l) fluorescence signals at 615 nm (cryptate) and 665 nm (XL665) were read on an Envision 2104 reader. • 3. Data analysis • 3.1 Calculation of ratio (665/615 nm) of each well • 3.2 Calculation of inhibition rate
[formula] • 3.3 Calculation of IC50 value of compound and drawing dose-effect curve of compound • IC50 values were calculated using GraphPad 6.0 by applying a non-linear regression curve (dose-effect relationship-variable slope) of the logarithm of the compound concentration versus the inhibition rate.
Y=lowest value+(highest value−lowest value)/(1+10^((Log IC50−X)×slope)) • X: logarithm of inhibitor concentration; and Y: inhibition rate. • 3.4 Double test report • 3.4.1 After one tester completed a report, another tester again checked the report to ensure that data analysis was correct. • 3.4.2 The data was exported from the software and manually analyzed. • 3.4.2.1 The rate was converted into the inhibition rate. All the IC50 values were first calculated with the inhibition rate using Prism GraphPad 6.0. • 3.4.2.2 Then the IC50 value was recalculated using the ratio to check the accuracy of the analysis. • 3.4.3 The number of all the compounds was ensured to be correct.

[2] = test system: KC-0178:NCI-1975 EGFR-L858R/T790M/C797S; test: Cell proliferation inhibition experiment (CCK-8), KC-0178; type: cell-based; conditions: Homo sapiens, 72 h
From the text: (§1) Inhibition rate %=[(A0−AS)/(A0−AC)]×100%.

PC-9 EGFR-Del19 = test: Cell proliferation inhibition experiment (CCK-8), PC-9; type: cell-based; conditions: Homo sapiens, 72 h
From the text: as §1

H1975 EGFR-L858R/T790M = test: Cell proliferation inhibition experiment (CCK-8), H1975; type: cell-based; conditions: Homo sapiens, NCI-H1975, 72 h
From the text: as §1

A549 EGFR-WT = test: Cell proliferation inhibition experiment (CCK-8), A549; conditions: Homo sapiens, A549, 72 h, read-out: cell proliferation inhibition IC50 (μM) A549, 72 h, CCK-8

EGFR (D770-N771 ins NPG T790M) kinase, sequence (P00533 other isoform, or with tags, fused parts or gaps T790M/del 1-668/ins NPG behind 770 limits assumed): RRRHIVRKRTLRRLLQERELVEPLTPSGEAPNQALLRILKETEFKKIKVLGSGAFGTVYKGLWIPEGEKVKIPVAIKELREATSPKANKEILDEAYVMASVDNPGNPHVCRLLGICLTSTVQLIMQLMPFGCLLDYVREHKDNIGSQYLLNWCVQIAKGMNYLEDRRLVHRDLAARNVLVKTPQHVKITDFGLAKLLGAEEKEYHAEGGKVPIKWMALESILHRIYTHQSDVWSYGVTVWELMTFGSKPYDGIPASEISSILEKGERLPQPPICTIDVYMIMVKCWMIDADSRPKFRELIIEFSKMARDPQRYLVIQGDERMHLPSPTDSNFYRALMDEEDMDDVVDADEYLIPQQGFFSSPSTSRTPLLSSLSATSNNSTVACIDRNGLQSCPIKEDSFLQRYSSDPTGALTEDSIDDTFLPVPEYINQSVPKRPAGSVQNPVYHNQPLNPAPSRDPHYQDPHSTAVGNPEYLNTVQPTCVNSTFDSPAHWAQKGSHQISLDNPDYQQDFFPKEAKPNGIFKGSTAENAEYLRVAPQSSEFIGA

pIC50 [1]: 8.06 | IC50 (PC-9 EGFR-Del19): < 0.1 µM | IC50 (H1975 EGFR-L858R/T790M): 0.1 to 1 µM | IC50 (A549 EGFR-WT): 0.1 to 1 µM | IC50 (A549 EGFR-WT; Table 5 numeric): 0.23 µM
Structure (SMILES): CN1CCN(c2ccc(Nc3nc(N[C@H]4CC[C@@H](CO)CC4)c4c(C(=O)c5ccc(F)cc5)c[nH]c4n3)cc2)CC1 [Example 60]
IC50 [2]: 1 to 2 µM
